In ChEMBL document CHEMBL1201862, “PubChem BioAssay data set” (2004):
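Where inhibition never reached the appropriate level, the endpoint shown equals the highest concentration tested. Otherwise, values were interpolated linearly from a five-concentration, 48-hour dose response in 96-well plates. GI50 is the concentration that inhibits growth by half.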 Active and inactive are the calls of the source. No stated cut-off is given here; in the data, active = GI50 up to about 1.1 µM and inactive = higher.

Columns and labels:
Assay in all cases: inhibition of tumour cell growth, NCI panel, 48 h
SNB-75 = tested on: SNB-75
HOP-92 = tested on: HOP-92
COLO 205 = tested on: COLO 205
DMS-273 = tested on: DMS-273
LOX IMVI = tested on: LOX IMVI
UACC-62 = tested on: UACC-62
SNB-78 = tested on: SNB-78
SK-OV-3 = tested on: SK-OV-3
OVCAR-3 = tested on: OVCAR-3
M14 = tested on: M14
SW-620 = tested on: SW-620
KM-20L2 = tested on: KM-20L2
A549 = tested on: A549
NCI-H23 = tested on: NCI-H23
UO-31 = tested on: UO-31
NCI-H460 = tested on: NCI-H460
HOP-62 = tested on: HOP-62
IGROV-1 = tested on: IGROV-1
XF498 = tested on: XF498
SNB-19 = tested on: SNB-19
LXFL 529 = tested on: LXFL 529
RXF 393 = tested on: RXF 393
Malme-3M = tested on: Malme-3M
K562 = tested on: K562
HCC 2998 = tested on: HCC 2998
786-0 = tested on: 786-0
MOLT-4 = tested on: MOLT-4
ACHN = tested on: ACHN
SF-539 = tested on: SF-539
U-251 = tested on: U-251
KM12 = tested on: KM12
RPMI-8226 = tested on: RPMI-8226
SK-MEL-2 = tested on: SK-MEL-2
DMS-114 = tested on: DMS-114
RXF 631 = tested on: RXF 631
M19-MEL = tested on: M19-MEL
DLD-1 = tested on: DLD-1
NCI-H522 = tested on: NCI-H522
CCRF-CEM = tested on: CCRF-CEM
OVCAR-5 = tested on: OVCAR-5
TK-10 = tested on: TK-10
OVCAR-8 = tested on: OVCAR-8
HT-29 = tested on: HT-29
UACC-257 = tested on: UACC-257
EKVX = tested on: EKVX
SK-MEL-28 = tested on: SK-MEL-28
HCT-116 = tested on: HCT-116
A498 = tested on: A498
HL-60 = tested on: HL-60
HCT-15 = tested on: HCT-15
SN12C = tested on: SN12C
NCI-H226 = tested on: NCI-H226
OVCAR-4 = tested on: OVCAR-4
SF-268 = tested on: SF-268
SK-MEL-5 = tested on: SK-MEL-5
SR = tested on: SR
SF-295 = tested on: SF-295
CAKI-1 = tested on: CAKI-1

## CC(C)(C)NC(=O)NC12CC3CC(CC(F)(C3)C1)C2
SNB-75
  GI50: 52.7 µM (inactive)
HOP-92
  GI50: > 100 µM (inactive)
COLO 205
  GI50: > 100 µM (inactive)
DMS-273
  GI50: > 100 µM (inactive)
LOX IMVI
  GI50: > 100 µM (inactive)
UACC-62
  GI50: > 100 µM (inactive)
SNB-78
  GI50: > 100 µM (inactive)
SK-OV-3
  GI50: > 100 µM (inactive)
OVCAR-3
  GI50: > 100 µM (inactive)
M14
  GI50: > 100 µM (inactive)
SW-620
  GI50: > 100 µM (inactive)
KM-20L2
  GI50: > 100 µM (inactive)
A549
  GI50: > 100 µM (inactive)
NCI-H23
  GI50: > 100 µM (inactive)
UO-31
  GI50: > 100 µM (inactive)
NCI-H460
  GI50: > 100 µM (inactive)
HOP-62
  GI50: > 100 µM (inactive)
IGROV-1
  GI50: > 100 µM (inactive)
XF498
  GI50: > 100 µM (inactive)
SNB-19
  GI50: > 100 µM (inactive)
LXFL 529
  GI50: > 100 µM (inactive)
RXF 393
  GI50: > 100 µM (inactive)
Malme-3M
  GI50: > 100 µM (inactive)
K562
  GI50: > 100 µM (inactive)
HCC 2998
  GI50: > 100 µM (inactive)
786-0
  GI50: > 100 µM (inactive)
MOLT-4
  GI50: > 100 µM (inactive)
ACHN
  GI50: > 100 µM (inactive)
SF-539
  GI50: > 100 µM (inactive)
U-251
  GI50: > 100 µM (inactive)
KM12
  GI50: > 100 µM (inactive)
RPMI-8226
  GI50: > 100 µM (inactive)
SK-MEL-2
  GI50: > 100 µM (inactive)
DMS-114
  GI50: > 100 µM (inactive)
RXF 631
  GI50: > 100 µM (inactive)
M19-MEL
  GI50: > 100 µM (inactive)
DLD-1
  GI50: > 100 µM (inactive)
NCI-H522
  GI50: > 100 µM (inactive)
CCRF-CEM
  GI50: > 100 µM (inactive)
OVCAR-5
  GI50: > 100 µM (inactive)
TK-10
  GI50: > 100 µM (inactive)
OVCAR-8
  GI50: > 100 µM (inactive)
HT-29
  GI50: > 100 µM (inactive)
UACC-257
  GI50: > 100 µM (inactive)
EKVX
  GI50: > 100 µM (inactive)
SK-MEL-28
  GI50: > 100 µM (inactive)
HCT-116
  GI50: > 100 µM (inactive)
A498
  GI50: > 100 µM (inactive)
HL-60
  GI50: > 100 µM (inactive)

## CCOc1ccc2[nH]c3c(C)c4ccncc4c(C)c3c2c1
SNB-75
  GI50: 1.71 µM (inactive)
HOP-92
  GI50: 1.45 µM (inactive)
COLO 205
  GI50: 1.21 µM (inactive)
DMS-273
  GI50: 0.394 µM (active)
LOX IMVI
  GI50: 1.2 µM (inactive)
HCT-15
  GI50: 0.448 µM
SNB-78
  GI50: 1.34 µM (inactive)
SK-OV-3
  GI50: 3.91 µM (inactive)
OVCAR-3
  GI50: 4.27 µM (inactive)
M14
  GI50: 1.55 µM (inactive)
SW-620
  GI50: 0.466 µM (active)
KM-20L2
  GI50: 1.08 µM (active)
A549
  GI50: 1.45 µM (inactive)
NCI-H23
  GI50: 1.45 µM (inactive)
UO-31
  GI50: 2.91 µM (inactive)
NCI-H460
  GI50: 0.451 µM (active)
SN12C
  GI50: 0.564 µM (active)
HOP-62
  GI50: 1.08 µM (active)
IGROV-1
  GI50: 1.16 µM (inactive)
NCI-H226
  GI50: 1.82 µM (inactive)
XF498
  GI50: 0.984 µM (active)
SNB-19
  GI50: 1.45 µM (inactive)
LXFL 529
  GI50: 0.698 µM (active)
RXF 393
  GI50: 1.54 µM (inactive)
Malme-3M
  GI50: 1.41 µM (inactive)
K562
  GI50: 0.377 µM (active)
HCC 2998
  GI50: 1.42 µM (inactive)
786-0
  GI50: 1.03 µM (active)
MOLT-4
  GI50: 0.426 µM (active)
ACHN
  GI50: 1.07 µM (active)
SF-539
  GI50: 1.58 µM (inactive)
OVCAR-4
  GI50: 1.41 µM (inactive)
U-251
  GI50: 1 µM (active)
KM12
  GI50: 1 µM (active)
RPMI-8226
  GI50: 1.36 µM (inactive)
SK-MEL-2
  GI50: 1.19 µM (inactive)
DMS-114
  GI50: 1.34 µM (inactive)
RXF 631
  GI50: 1.27 µM (inactive)
M19-MEL
  GI50: 1.51 µM (inactive)
DLD-1
  GI50: 0.561 µM (active)
NCI-H522
  GI50: 1.45 µM (inactive)
CCRF-CEM
  GI50: 0.649 µM (active)
OVCAR-5
  GI50: 1.58 µM (inactive)
SF-268
  GI50: 1.18 µM (inactive)
TK-10
  GI50: 2.12 µM (inactive)
SK-MEL-5
  GI50: 1.51 µM (inactive)
OVCAR-8
  GI50: 0.789 µM (active)
SR
  GI50: 0.37 µM (active)
HT-29
  GI50: 0.71 µM (active)
UACC-257
  GI50: 1.75 µM (inactive)
SF-295
  GI50: 1.02 µM (active)
EKVX
  GI50: 1.46 µM (inactive)
SK-MEL-28
  GI50: 1.91 µM (inactive)
HCT-116
  GI50: 0.486 µM (active)
CAKI-1
  GI50: 1.69 µM (inactive)
A498
  GI50: 1.8 µM (inactive)
HL-60
  GI50: 1.2 µM (inactive)
